The results in this text go back to patent US7699995B2, “Water treatment method” (priority 2006, dated 2010).

Marks after values point to notes of the source that are not given here.

Data set [1] is described as follows: Stability in buffered water at various pH and temperatures (HPLC). The format is physicochemical. The method, then:
Biocides were added to buffer solutions and stability was tested at 22° and 50° C. using HPLC to measure biocide concentration at 0 time, 21 days, 43 days, and 88-90 days. Biocide stability was determined in the following buffer solutions: pH2, 0.01M HCl; pH6, 0.1M KH2PO4; pH8, 0.025M borate; pH10, 0.025M borate; pH12, 0.05M Na2HPO4. Biocide concentrations tested were 100 ppm MI, 200 ppm BIT, 44 ppm CMI.

The nature of data set [2]: Stability in high pH metalworking fluid use dilutions (HPLC). The format is physicochemical. To be noted: for % CMIT Remaining (without MCC) / % CMIT Remaining (with MCC): 25° C.; for % CMIT Remaining (with MCC): MCC 300 ppm. The method, then:
Stability studies were conducted in three high pH metalworking fluid use dilutions to compare the persistence of MIT biocide versus CMIT biocide, tested alone and in combination with MCC). Aliquots of the use-diluted fluids were dosed with 17.5 ppm active CMIT/MIT and CMIT/MIT/MCC and stored at 25° C. Biocide concentrations were determined at time zero and weekly using high performance liquid chromatography (HPLC) analysis.

Data set [3] relates to Mycobacterium chelonae (ATCC 14472). The data set can be described thus: MBC test, transfer from MIC plates to fresh media. As to conditions: M. chelonae, no survivors after 2 days in fresh media. The format is cell-based. The method, then: (§1) Bacterial strains tested included Mycobacterium chelonae (ATCC 14472) and Mycobacterium immunogenum (ATCC 700505). Mycobacterial cultures were grown overnight at 30° C. (M. immunogenum) or 37° C. (M. chelonae), in a rotary shaking bath in Middlebrook […] with Middlebrook enrichment. A 1:20 dilution of the overnight culture was made into the appropriate test media and inoculated to give a final concentration of 10^6 to 10^7 CFU/ml.
(§2) MBC tests were conducted by transferring samples from the MIC test samples into fresh media and observing for growth of the culture. Growth was determined as above. In this test using Biomek 2000 Workstation, 10 μl samples taken from the 96-well MIC plates were placed in […] of fresh growth media to determine the number of surviving organisms for the same gradient of biocide concentrations. These plates were incubated and read in the same fashion as the MIC plates.

In data set [4] the test system is Mycobacterium immunogenum (ATCC 700505). The data set can be described thus: MBC test, transfer from MIC plates to fresh media. The format is cell-based. To be noted: M. immunogenum, no survivors after 2 days in fresh media. How it is done:
as §1, §2

Data set [5] concerns natural, resident populations of Mycobacterium. Description: Eradication of mycobacteria in naturally contaminated in-use metalworking fluids. As to conditions: for No. of Fluids with ≧99% Kill (2-log reduction): of six fluids, 48 hours. The format is cell-based. How it is done: A comparative study was conducted evaluating six metalworking fluid biocides versus natural, resident populations of Mycobacterium from six in-use metalworking fluids. CMIT/MIT, CMIT/MIT/MCC, MIT, BIT, triazine, and PCMC microbicides were tested under controlled laboratory conditions to determine their efficacy at the maximum manufacturer's recommended dose rate (Table 2). The metalworking fluids were known to contain high levels of mycobacteria prior to dosing with biocides. Samples were then dosed with biocides, incubated with agitation at room temperature and viable mycobacteria counts determined after 48 hours by plating onto Middlebrook 7H10 medium, with Tween 80, glycerin, cyclohexamide, chloramphenicol, and gentamycin to suppress the growth of unwanted microorganisms.
The six metalworking fluid samples containing mycobacteria study from Example 7, were also tested using the same biocides with dosing at 50% of the maximum manufacturer's recommended rate (Table 2) under the same conditions. These metalworking fluids were known to contain high levels of mycobacteria prior to dosing with biocides. Samples were then dosed with biocides, incubated with agitation at room temperature and viable mycobacteria counts determined after 48 hours by plating onto Middlebrook 7H10 medium, with Tween 80, glycerin, cyclohexamide, chloramphenicol, and gentamycin to suppress the growth of unwanted microorganisms.

For data set [6], the system named is Mycobacterium chelonae (ATCC 14472). Description: High resolution MIC test, pure culture, 1/10x TSB. The format is cell-based. As to conditions: M. chelonae, 24 hours at 37° C. The method, then: (§3) The lowest concentration of microbicide required to inhibit bacteria was determined by a high resolution MIC test. Varying amounts of each microbicide were added to media in a 96-well microtiter plate. The media used for the MIC tests was 10% Trypicase Soy Broth ( 1/10× TSB). […] serial dilutions were performed on a Biomek 2000 Workstation to obtain a range of closely spaced concentrations of microbicides. A cell suspension of stationary phase microorganisms, adjusted to provide 10^6 colony forming units (CFU)/mL in each well for bacteria was added to the microtiter plate. The microtiter plates were incubated for 24 hours at 30° C. for Mycobacterium immunogenum and 37° C. for Mycobacterium chelonae. The presence or absence of microbial growth was determined by measuring the turbidity in each well using a Thermomax microplate reader set at an absorbance of 650 nm. The lowest concentration of compound in which no growth was observed was considered the MIC value for the microbicide. The MIC value for each microbicide was determined from the average of four determinations for bacteria.
as §1

In data set [7] the test system is Mycobacterium immunogenum (ATCC 700505). The data set can be described thus: High resolution MIC test, pure culture, 1/10x TSB. The format is cell-based. As to conditions: M. immunogenum, 24 hours at 30° C. The method, then: as §3, §1
For data set [8] the following is noted: buffer, pH 9.
Method: pH 9 buffer containing 0.069 M boric acid, 0.017 M citric acid, 0.066 M sodium phosphate was prepared in distilled water. Biocide was dosed into the pH 9 buffer solution and stored at 70° C. in a heat block. The samples were examined for active ingredient concentration at the time points after 5 hours, and 1, 3, 7, 23, 30, 35 and 56 days. Initial biocide doses were 166 ppm MI, 199 ppm BIT and 150 ppm BNPD.
The samples were evaluated for active ingredient concentration via High Pressure Liquid Chromatography. Samples were taken from the heating blocks and allowed to cool to room temperature for 30 minutes. The samples were then diluted 1:20 in deionized water by adding 9.5 ml of deionized water to 0.5 grams of the samples in a 25 ml glass sample vial. The samples were mixed for 15 seconds and transferred to HPLC sample vials for analysis.
The mark [9] stands for this setting: Synthetic Fluid 2 (pH 9.4), 1 wk.
[10] abbreviates: Synthetic Fluid 2 (pH 9.4), 3 wk.
The mark [11] stands for this setting: Fluid 1, 48 hours, 50% of recommended maximum dose.
Where [12] appears, read: Fluid 1, 48 hours, 100% of recommended maximum dose.
[13] abbreviates: Fluid 2, 48 hours, 50% of recommended maximum dose.
The mark [14] stands for this setting: Fluid 2, 48 hours, 100% of recommended maximum dose.
The mark [15] stands for this setting: Fluid 3, 48 hours, 50% of recommended maximum dose.
Setting [16] is: Fluid 3, 48 hours, 100% of recommended maximum dose.
Setting [17] is: Fluid 4, 48 hours, 50% of recommended maximum dose.
[18] abbreviates: Fluid 4, 48 hours, 100% of recommended maximum dose.
The mark [19] stands for this setting: Fluid 5, 48 hours, 50% of recommended maximum dose.
[20] abbreviates: Fluid 5, 48 hours, 100% of recommended maximum dose.
[21] abbreviates: Fluid 6, 48 hours, 50% of recommended maximum dose.
Where [22] appears, read: Fluid 6, 48 hours, 100% of recommended maximum dose.

On to `Cn1sc(Cl)cc1=O` [CMI, 5-chloro-2-methyl-4-isothiazolin-3-one], for which the “Percent Remaining at: pH 2” value in data set [1] (22° C., day 0) was determined as 100%; in data set [1] (22° C., day 21), 100%; in data set [1] (22° C., day 43) it was 100%; in data set [1] (22° C., day 88) it was 100%; in data set [1] (50° C., day 0), 100%; in data set [1] (50° C., day 21) it was 100%. Also, the “Percent Remaining at: pH 2” value in data set [1] (50° C., day 43) was determined as 93%; in data set [1] (50° C., day 88), 100%. Besides, the “Percent Remaining at: pH 6” value turned out to be 100% in data set [1] (22° C., day 0); 100% in data set [1] (22° C., day 21); 100% in data set [1] (22° C., day 43); 100% in data set [1] (22° C., day 88); 100% in data set [1] (50° C., day 0); 100% in data set [1] (50° C., day 21). For the same compound, the “Percent Remaining at: pH 6” value in data set [1] (50° C., day 43) is 65%; in data set [1] (50° C., day 88), 30%. Moreover, the “Percent Remaining at: pH 8” value in data set [1] (22° C., day 0) amounted to 100%; in data set [1] (22° C., day 21), 100%; in data set [1] (22° C., day 43) it was 91%; in data set [1] (22° C., day 88), 95%; in data set [1] (50° C., day 0), 100%; in data set [1] (50° C., day 21) it was 15%. In addition, the “Percent Remaining at: pH 8” value is 0% in data set [1] (50° C., day 43) and 0% in data set [1] (50° C., day 88). Further, the “Percent Remaining at: pH 10” value in data set [1] (22° C., day 0) is reported as 100%; in data set [1] (22° C., day 21) it was 0%; in data set [1] (22° C., day 43) it was 0%; in data set [1] (22° C., day 88), 0%; in data set [1] (50° C., day 0) it was 100%; in data set [1] (50° C., day 21), 0%. Besides, the “Percent Remaining at: pH 10” value came to 0% in data set [1] (50° C., day 43) and 0% in data set [1] (50° C., day 88). The “Percent Remaining at: pH 12” value was determined as 100% in data set [1] (22° C., day 0); 0% in data set [1] (22° C., day 21); 0% in data set [1] (22° C., day 43); 0% in data set [1] (22° C., day 88); 100% in data set [1] (50° C., day 0); 0% in data set [1] (50° C., day 21). Further, the “Percent Remaining at: pH 12” value in data set [1] (50° C., day 43) was determined as 0%; in data set [1] (50° C., day 88) it was 0%. For the same compound, the “% CMIT Remaining (without MCC)” value is 28% in data set [2] (Soluble Fluid 1 (pH 9.2), 2 wk); 10% in data set [2] (Soluble Fluid 1 (pH 9.2), 4 wk); 25% in data set [2] (Soluble Fluid 3 (pH 9.3), 2 wk); 0% in data set [2] (Soluble Fluid 3 (pH 9.3), 4 wk); 13% in data set [2] (setting [9]); 0* % in data set [2] (setting [10]). Also, the “% CMIT Remaining (with MCC)” value worked out at 38% in data set [2] (Soluble Fluid 1 (pH 9.2), 2 wk); 18% in data set [2] (Soluble Fluid 1 (pH 9.2), 4 wk); 35% in data set [2] (Soluble Fluid 3 (pH 9.3), 2 wk); 16% in data set [2] (Soluble Fluid 3 (pH 9.3), 4 wk); 42% in data set [2] (setting [9]); 0% in data set [2] (setting [10]). For the same compound, the “biocide remaining, CMIT with MCC” value in data set [2] (after 3-4 weeks in the three fluids, 300 ppm MCC) is given as at most 16%. The “biocide remaining, CMIT alone” value in data set [2] (after 3-4 weeks in the three fluids, without MCC) was “none remaining”.

Take `Cc1cc(O)ccc1Cl` [PCMC]: the entries for the “Minimum Biocidal Concentration” value in data set [3] and in data set [4] were 60 ppm active and 75 ppm active, respectively. For the same compound, the “Log Reduction in Mycobacterial Counts versus Control (no biocide)” value (“Log Reduction … (no biocide)” for short) in data set [5] (setting [11]) is listed as 0.00 log; in data set [5] (setting [12]) it was 5.88 log; in data set [5] (setting [13]) it was 1.00 log; in data set [5] (setting [14]) it was 5.00 log; in data set [5] (setting [15]) it was 0.00 log; in data set [5] (setting [16]) it was 1.00 log. Also, the “Log Reduction … (no biocide)” value in data set [5] (setting [17]) is listed as 5.24 log; in data set [5] (setting [18]), 5.24 log; in data set [5] (setting [19]), 0.51 log; in data set [5] (setting [20]) it was 0.90 log; in data set [5] (setting [21]), 3.88 log; in data set [5] (setting [22]), 3.88 log. The results for the “Minimum Inhibitory Concentration” value in data set [6] and in data set [7] were 20 ppm active and 35 ppm active, respectively.

For `C1COCN1` [Oxazolidine], the “Minimum Biocidal Concentration” value in data set [3] was 34 ppm active; in data set [4] it was 836 ppm active. For the same compound, the “Minimum Inhibitory Concentration” value was found to be 42 ppm active in data set [6] and 38 ppm active in data set [7].

Take `O=[N+]([O-])C(Br)(CO)CO` [BNPD, 2-bromo-2-nitro-propane-1,3-diol]: the “Percent Remaining after: 0” value in data set [8] (0 h) came out at 100%. The “Percent Remaining after: 5 hr” value in data set [8] (5 h) is 0%. Besides, in data set [8] (24 h), the “Percent Remaining after: 1 day” value was 0%.

On to `OCCN1CN(CCO)CN(CCO)C1` [Triazine], for which the “Minimum Biocidal Concentration” value in data set [3] and in data set [4] was 314 ppm active each time. The “Log Reduction … (no biocide)” value in data set [5] (setting [11]) amounted to 0.00 log; in data set [5] (setting [12]), 0.00 log; in data set [5] (setting [13]) it was 0.00 log; in data set [5] (setting [14]), 0.12 log; in data set [5] (setting [15]) it was 0.00 log; in data set [5] (setting [16]) it was 0.00 log. For the same compound, the “Log Reduction … (no biocide)” value in data set [5] (setting [17]) turned out to be 0.00 log; in data set [5] (setting [18]) it was 0.00 log; in data set [5] (setting [19]), 0.06 log; in data set [5] (setting [20]), 0.00 log; in data set [5] (setting [21]), 0.00 log; in data set [5] (setting [22]), 0.00 log. The “No. of Fluids with ≧99% Kill (2-log reduction)” value in data set [5] (50% of recommended maximum dose) and in data set [5] (100% of recommended maximum dose) was 0 each time. Moreover, the “Minimum Inhibitory Concentration” value in data set [6] came to 43 ppm active; in data set [7], 39 ppm active.
